Results from US11981658B2, “Substituted aminopyridine compounds as EGFR inhibitors” (YUHAN CORPORATION, priority 2021, dated 2024).
Where two headings read alike, the source gives them in different places.

Columns and labels:
EGFR L858R/C797S = EGFR L858R/C797S (Homo sapiens, UniProt P00533, C797S/L858R); assay: Biochemical EGFR kinase inhibition assay (Lance Ultra TR-FRET), double mutant L858R/C797S
Procedure, shortened: (§1)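 Kinase activity is measured by TR-FRET phosphopeptide detection. Compounds span 0.003 μM to 10 μM; the 1 h reaction at room temperature is quenched with EDTA, then labelled antibody (2 nM) is incubated 60 min before reading.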

EGFR Del19/C797S = EGFR Del19/C797S (Homo sapiens, UniProt P00533, C797S/DEL746-750); assay: Biochemical EGFR kinase inhibition assay (Lance Ultra TR-FRET), double mutant del19/C797S
Chain of EGFR Del19/C797S (P00533 with tags, fused parts or gaps DEL746-750/C797S): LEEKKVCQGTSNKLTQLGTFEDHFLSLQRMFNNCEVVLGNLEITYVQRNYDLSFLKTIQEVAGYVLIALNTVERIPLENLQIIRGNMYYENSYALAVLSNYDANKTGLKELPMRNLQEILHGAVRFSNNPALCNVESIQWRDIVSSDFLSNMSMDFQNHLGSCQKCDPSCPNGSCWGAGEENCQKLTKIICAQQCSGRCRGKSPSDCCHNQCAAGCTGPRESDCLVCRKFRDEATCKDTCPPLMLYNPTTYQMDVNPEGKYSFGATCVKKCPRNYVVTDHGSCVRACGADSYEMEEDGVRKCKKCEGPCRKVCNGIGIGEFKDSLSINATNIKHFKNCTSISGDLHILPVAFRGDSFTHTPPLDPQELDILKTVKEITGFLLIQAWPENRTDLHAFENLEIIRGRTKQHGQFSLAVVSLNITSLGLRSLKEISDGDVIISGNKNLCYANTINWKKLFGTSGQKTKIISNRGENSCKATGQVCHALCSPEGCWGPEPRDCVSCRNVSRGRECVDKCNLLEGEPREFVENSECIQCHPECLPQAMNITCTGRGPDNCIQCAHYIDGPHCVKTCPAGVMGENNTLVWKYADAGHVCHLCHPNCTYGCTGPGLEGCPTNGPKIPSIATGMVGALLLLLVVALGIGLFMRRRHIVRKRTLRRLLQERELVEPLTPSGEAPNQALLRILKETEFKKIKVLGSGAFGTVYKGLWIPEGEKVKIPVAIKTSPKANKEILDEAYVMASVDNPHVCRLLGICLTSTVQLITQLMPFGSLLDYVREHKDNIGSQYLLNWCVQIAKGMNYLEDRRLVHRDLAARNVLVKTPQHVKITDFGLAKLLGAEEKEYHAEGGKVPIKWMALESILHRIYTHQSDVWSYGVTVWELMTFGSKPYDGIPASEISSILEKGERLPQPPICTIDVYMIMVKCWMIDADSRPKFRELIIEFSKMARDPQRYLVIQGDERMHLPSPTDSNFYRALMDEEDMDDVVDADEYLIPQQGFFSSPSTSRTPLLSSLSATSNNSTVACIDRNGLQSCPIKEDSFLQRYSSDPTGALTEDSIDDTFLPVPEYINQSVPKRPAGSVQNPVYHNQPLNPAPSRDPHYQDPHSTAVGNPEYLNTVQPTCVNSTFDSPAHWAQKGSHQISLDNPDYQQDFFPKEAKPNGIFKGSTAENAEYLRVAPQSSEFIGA
Procedure, shortened: as §1

EGFR Del19/T790M/C797S = EGFR Del19/T790M/C797S (Homo sapiens, UniProt P00533, C797S/DEL746-750/T790M); assay: Biochemical EGFR kinase inhibition assay (Lance Ultra TR-FRET), triple mutant del19/T790M/C797S
Chain of EGFR Del19/T790M/C797S (P00533 with tags, fused parts or gaps DEL746-750/T790M/C797S): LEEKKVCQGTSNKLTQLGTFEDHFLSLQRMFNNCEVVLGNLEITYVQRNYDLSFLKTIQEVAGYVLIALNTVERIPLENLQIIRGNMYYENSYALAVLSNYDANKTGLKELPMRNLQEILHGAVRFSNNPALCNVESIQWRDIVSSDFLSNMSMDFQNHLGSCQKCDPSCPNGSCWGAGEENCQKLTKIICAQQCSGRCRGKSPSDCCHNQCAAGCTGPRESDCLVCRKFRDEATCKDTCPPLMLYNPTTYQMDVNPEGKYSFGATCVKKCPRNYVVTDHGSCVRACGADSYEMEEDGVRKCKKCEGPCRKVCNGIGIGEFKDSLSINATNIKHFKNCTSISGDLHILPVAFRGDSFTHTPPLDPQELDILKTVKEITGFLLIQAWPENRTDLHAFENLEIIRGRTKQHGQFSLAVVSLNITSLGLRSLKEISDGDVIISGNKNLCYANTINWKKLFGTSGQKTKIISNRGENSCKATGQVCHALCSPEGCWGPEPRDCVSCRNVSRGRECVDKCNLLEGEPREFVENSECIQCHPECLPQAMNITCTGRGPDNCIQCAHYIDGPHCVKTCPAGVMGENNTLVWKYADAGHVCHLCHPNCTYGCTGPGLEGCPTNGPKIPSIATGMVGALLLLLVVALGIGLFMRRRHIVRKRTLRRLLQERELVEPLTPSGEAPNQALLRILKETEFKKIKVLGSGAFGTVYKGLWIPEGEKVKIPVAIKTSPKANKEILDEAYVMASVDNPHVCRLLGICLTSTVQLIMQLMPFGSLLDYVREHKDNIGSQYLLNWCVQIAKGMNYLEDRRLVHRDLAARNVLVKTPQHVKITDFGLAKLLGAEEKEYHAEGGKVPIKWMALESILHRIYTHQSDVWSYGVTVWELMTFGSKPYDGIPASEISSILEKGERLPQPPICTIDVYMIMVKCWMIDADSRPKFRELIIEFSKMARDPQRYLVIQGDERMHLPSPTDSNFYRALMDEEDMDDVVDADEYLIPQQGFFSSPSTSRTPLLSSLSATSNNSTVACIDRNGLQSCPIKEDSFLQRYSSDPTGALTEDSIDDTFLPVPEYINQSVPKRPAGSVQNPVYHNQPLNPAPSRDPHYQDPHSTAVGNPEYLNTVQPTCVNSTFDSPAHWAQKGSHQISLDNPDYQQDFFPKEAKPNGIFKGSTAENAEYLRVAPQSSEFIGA
Procedure, shortened: as §1

EGFR wildtype (WT) = EGFR wildtype (WT) (Homo sapiens, UniProt P00533); assay: Biochemical EGFR kinase inhibition assay (Lance Ultra TR-FRET), wildtype
Chain of EGFR wildtype (WT) (P00533 25-1210): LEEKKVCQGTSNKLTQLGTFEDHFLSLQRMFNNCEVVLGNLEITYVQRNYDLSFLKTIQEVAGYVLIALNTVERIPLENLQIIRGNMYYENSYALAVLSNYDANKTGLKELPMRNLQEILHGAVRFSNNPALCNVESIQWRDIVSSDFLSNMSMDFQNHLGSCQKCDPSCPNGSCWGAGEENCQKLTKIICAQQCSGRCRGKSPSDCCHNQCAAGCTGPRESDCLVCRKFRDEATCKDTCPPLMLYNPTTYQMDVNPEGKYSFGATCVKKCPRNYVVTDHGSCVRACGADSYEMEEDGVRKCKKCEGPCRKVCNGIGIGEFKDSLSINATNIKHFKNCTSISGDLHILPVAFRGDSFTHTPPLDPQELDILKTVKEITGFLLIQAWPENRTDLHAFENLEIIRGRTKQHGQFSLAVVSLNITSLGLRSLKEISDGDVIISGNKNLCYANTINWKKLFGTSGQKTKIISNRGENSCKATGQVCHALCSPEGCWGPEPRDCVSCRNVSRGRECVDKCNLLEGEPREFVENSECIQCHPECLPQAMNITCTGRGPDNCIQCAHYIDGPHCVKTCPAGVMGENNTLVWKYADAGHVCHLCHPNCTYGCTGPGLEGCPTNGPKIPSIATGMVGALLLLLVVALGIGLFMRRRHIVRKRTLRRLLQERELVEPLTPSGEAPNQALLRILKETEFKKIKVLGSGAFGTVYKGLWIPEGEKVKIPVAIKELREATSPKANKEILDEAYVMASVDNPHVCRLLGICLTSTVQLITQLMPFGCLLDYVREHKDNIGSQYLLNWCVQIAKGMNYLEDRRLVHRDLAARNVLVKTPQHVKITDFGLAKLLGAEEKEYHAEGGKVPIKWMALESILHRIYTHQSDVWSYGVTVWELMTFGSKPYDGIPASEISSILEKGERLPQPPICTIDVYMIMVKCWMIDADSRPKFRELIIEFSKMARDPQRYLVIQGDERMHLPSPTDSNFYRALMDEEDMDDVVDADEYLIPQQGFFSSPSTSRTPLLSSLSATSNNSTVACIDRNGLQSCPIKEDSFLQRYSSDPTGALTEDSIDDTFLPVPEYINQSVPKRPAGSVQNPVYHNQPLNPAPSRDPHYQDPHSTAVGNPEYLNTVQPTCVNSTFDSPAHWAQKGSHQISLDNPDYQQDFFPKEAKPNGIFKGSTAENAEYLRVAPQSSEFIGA
Procedure, shortened: as §1

EGFR L858R/T790M/C797S = EGFR L858R/T790M/C797S (Homo sapiens, UniProt P00533, C797S/L858R/T790M); assay: Biochemical EGFR kinase inhibition assay (Lance Ultra TR-FRET), triple mutant L858R/T790M/C797S
Chain of EGFR L858R/T790M/C797S (P00533 25-1210 T790M/C797S/L858R): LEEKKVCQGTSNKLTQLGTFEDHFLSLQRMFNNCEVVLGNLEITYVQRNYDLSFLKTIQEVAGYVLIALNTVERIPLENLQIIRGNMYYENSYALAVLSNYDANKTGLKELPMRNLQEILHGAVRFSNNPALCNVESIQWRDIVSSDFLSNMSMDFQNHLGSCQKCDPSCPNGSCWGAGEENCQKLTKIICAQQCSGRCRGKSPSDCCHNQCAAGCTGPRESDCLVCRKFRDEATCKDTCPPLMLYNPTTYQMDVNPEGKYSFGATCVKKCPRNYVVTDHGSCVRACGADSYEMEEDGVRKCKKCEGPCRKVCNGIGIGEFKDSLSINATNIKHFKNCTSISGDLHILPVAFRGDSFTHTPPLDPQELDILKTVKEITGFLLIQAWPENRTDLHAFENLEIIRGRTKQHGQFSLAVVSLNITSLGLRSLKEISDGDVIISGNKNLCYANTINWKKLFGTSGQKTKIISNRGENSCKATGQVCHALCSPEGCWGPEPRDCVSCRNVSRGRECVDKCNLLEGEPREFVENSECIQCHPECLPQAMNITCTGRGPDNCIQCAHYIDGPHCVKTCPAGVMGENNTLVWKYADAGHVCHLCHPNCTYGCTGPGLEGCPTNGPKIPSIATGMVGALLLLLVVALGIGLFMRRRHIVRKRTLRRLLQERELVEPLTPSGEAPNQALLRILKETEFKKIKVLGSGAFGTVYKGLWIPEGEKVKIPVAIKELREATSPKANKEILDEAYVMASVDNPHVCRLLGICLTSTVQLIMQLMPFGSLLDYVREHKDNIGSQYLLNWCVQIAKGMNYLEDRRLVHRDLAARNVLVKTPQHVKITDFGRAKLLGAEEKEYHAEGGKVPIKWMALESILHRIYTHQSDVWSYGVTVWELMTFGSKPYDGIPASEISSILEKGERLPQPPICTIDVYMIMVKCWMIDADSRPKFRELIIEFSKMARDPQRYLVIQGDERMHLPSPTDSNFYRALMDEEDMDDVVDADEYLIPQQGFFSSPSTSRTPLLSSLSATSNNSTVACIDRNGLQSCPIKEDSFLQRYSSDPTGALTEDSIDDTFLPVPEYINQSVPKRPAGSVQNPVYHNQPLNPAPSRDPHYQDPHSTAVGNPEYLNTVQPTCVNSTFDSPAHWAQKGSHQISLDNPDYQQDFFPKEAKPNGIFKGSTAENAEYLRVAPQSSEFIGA
Procedure, shortened: as §1

[1] = ATP at Km, read-out: IC50 L858R/C797S (nM), Km ATP
[2] = IC50 L858R/C797S (nM), 100 μM ATP
[3] = ATP at Km, read-out: IC50 Del19/C797S (nM), Km ATP
[4] = IC50 Del19/C797S (nM), 100 μM ATP
[5] = ATP at Km, read-out: IC50 Del19/T790M/C797S (nM), Km ATP
[6] = IC50 Del19/T790M/C797S (nM), 100 μM ATP
[7] = ATP at Km, read-out: IC50 WT (nM), Km ATP
[8] = ATP at Km, read-out: IC50 L858R/T790M/C797S (nM), Km ATP
[9] = IC50 L858R/T790M/C797S (nM), 100 μM ATP

Row | SMILES | IC50 (EGFR L858R/C797S; [1]) [nM] | IC50 (EGFR L858R/C797S; [2]) [nM] | IC50 (EGFR Del19/C797S; [3]) [nM] | IC50 (EGFR Del19/C797S; [4]) [nM] | IC50 (EGFR Del19/T790M/C797S; [5]) [nM] | IC50 (EGFR Del19/T790M/C797S; [6]) [nM] | IC50 (EGFR wildtype (WT); [7]) [nM] | IC50 (EGFR wildtype (WT); IC50 WT (nM), 100 μM ATP) [nM] | IC50 (EGFR L858R/T790M/C797S; [8]) [nM] | IC50 (EGFR L858R/T790M/C797S; [9]) [nM]
1 | CC1(CO)CCN(c2cc(Nc3ccnc(-c4cnn(S(=O)(=O)C5CC5)c4)n3)ncc2C#Cc2ccc(CN3CCOCC3)cn2)CC1 [Example 185, (1-(2-((2-(1-(Cyclopropylsulfonyl)-1H-pyrazol-4-yl)pyrimidin-4-yl)amino)-5-((5-(morpholinomethyl)pyridin-2-yl)ethynyl)pyridin-4-yl)-4-methylpiperidin-4-yl)methanol] | 0.9 | 6.8 | 0.5 | 0.8 | 0.4 | 1.2 | 1.7 | > 10000 | 0.2 | 1.1
2 | CC1(CO)CCN(c2cc(Nc3ccnc(-c4cnn(S(=O)(=O)C5CC5)c4)n3)ncc2C#Cc2ccc(CN3CCOCC3)nc2)CC1 [Example 187, (1-(2-((2-(1-(Cyclopropylsulfonyl)-1H-pyrazol-4-yl)pyrimidin-4-yl)amino)-5-((6-(morpholinomethyl)pyridin-3-yl)ethynyl)pyridin-4-yl)-4-methylpiperidin-4-yl)methanol] | 2 | 8.2 | 1.6 | 0.9 | 0.9 | 0.5 | 3.9 | 932 | 1.2 | 0.8
3 | CC1(CO)CCN(c2cc(Nc3ccnc(-c4cnn(S(=O)(=O)C5CC5)c4)n3)ncc2C#Cc2csc(CN3CCOCC3)n2)CC1 [Example 189, (1-(2-((2-(1-(Cyclopropylsulfonyl)-1H-pyrazol-4-yl)pyrimidin-4-yl)amino)-5-((2-(morpholinomethyl)thiazol-4-yl)ethynyl)pyridin-4-yl)-4-methylpiperidin-4-yl)methanol] | 2.8 | 40.4 | 2.1 | 1.8 | 0.7 | 0.7 | 8.4 | > 10000 | 0.6 | 0.9
4 | O=S(=O)(C1CC1)n1cc(-c2nccc(Nc3cc(N[C@H]4CC[C@@H](O)CC4)c(C#Cc4ccc(CN5CCOCC5)s4)cn3)n2)cn1 [Example 190, (1s,4s)-4-((2-((2-(1-(Cyclopropylsulfonyl)-1H-pyrazol-4-yl)pyrimidin-4-yl)amino)-5-((5-(morpholinomethyl)thiophen-2-yl)ethynyl)pyridin-4-yl)amino)cyclohexan-1-ol] | 8.9 | 71.5 | 3.3 | 4.6 | 1.8 | 5.1 | 19.7 | > 10000 | 1 | 6.7
5 | CC1(CO)CCN(c2cc(Nc3ccnc(-c4cnn(S(=O)(=O)C5CC5)c4)n3)ncc2C#Cc2ccc(CN3CCOCC3)s2)CC1 [Example 191, (1-(2-((2-(1-(Cyclopropylsulfonyl)-1H-pyrazol-4-yl)pyrimidin-4-yl)amino)-5-((5-(morpholinomethyl)thiophen-2-yl)ethynyl)pyridin-4-yl)-4-methylpiperidin-4-yl)methanol] | 3.2 | 21.7 | 2.2 | 4.3 | 3 | 7 | 8.1 | 3580 | 1.5 | 9.8
6 | CC1(CO)CCN(c2cc(Nc3ccnc(-c4cnn(S(=O)(=O)C5CC5)c4)n3)ncc2C#Cc2cnc(CN3CCOCC3)s2)CC1 [Example 192, (1-(2-((2-(1-(Cyclopropylsulfonyl)-1H-pyrazol-4-yl)pyrimidin-4-yl)amino)-5-((2-(morpholinomethyl)thiazol-5-yl)ethynyl)pyridin-4-yl)-4-methylpiperidin-4-yl)methanol] | 2.1 | 4.5 | 1.1 | 1.8 | 1 | 1.5 | 6.1 | 1480 | 0.4 | 1.3
7 | CC1(CO)CCN(c2cc(Nc3ccnc(-c4cnn(S(=O)(=O)C5CC5)c4)n3)ncc2C#Cc2ncc(CN3CCOCC3)cn2)CC1 [Example 193, (1-(2-((2-(1-(Cyclopropylsulfonyl)-1H-pyrazol-4-yl)pyrimidin-4-yl)amino)-5-((5-(morpholinomethyl)pyrimidin-2-yl)ethynyl)pyridin-4-yl)-4-methylpiperidin-4-yl)methanol] | 0.9 | 6.6 | 0.4 | 0.7 | 0.5 | 0.6 | 2.2 | 1270 | 0.2 | 0.5
8 | O=S(=O)(C1CC1)n1cc(-c2nccc(Nc3cc(N[C@H]4CC[C@@H](O)CC4)c(C#Cc4ncc(CN5CCOCC5)cn4)cn3)n2)cn1 [Example 194, (1s,4s)-4-((2-((2-(1-(Cyclopropylsulfonyl)-1H-pyrazol-4-yl)pyrimidin-4-yl)amino)-5-((5-(morpholinomethyl)pyrimidin-2-yl)ethynyl)pyridin-4-yl)amino)cyclohexan-1-ol] | 3.4 | 169 | 2.2 | 3.3 | 0.5 | 0.5 | 26.1 | > 10000 | 0.2 | 0.7
9 | CC1(CO)CCN(c2cc(Nc3ccnc(-c4cnn(S(=O)(=O)C5CC5)c4)n3)ncc2C#CC2(O)CCOCC2)CC1 [Example 195, 4-((6-((2-(1-(cyclopropylsulfonyl)-1H-pyrazol-4-yl)pyrimidin-4-yl)amino)-4-(4-(hydroxymethyl)-4-methylpiperidin-1-yl)pyridin-3-yl)ethynyl)tetrahydro-2H-pyran-4-ol] | 2.3 | 14.8 | 2.4 | 2.7 | 0.3 | 0.4 | 19.6 | 8540 | 0.1 | 0.4
10 | O=S(=O)(C1CC1)n1cc(-c2nccc(Nc3cc(N[C@H]4CC[C@@H](O)CC4)c(C#CC4(O)CCOCC4)cn3)n2)cn1 [Example 196, 4-((6-((2-(1-(Cyclopropylsulfonyl)-1H-pyrazol-4-yl)pyrimidin-4-yl)amino)-4-(((1 s, 4s)-4-hydroxycyclohexyl)amino)pyridin-3-yl)ethynyl)tetrahydro-2H-pyran-4-ol] | 6.8 | 50.6 | 6 | 9.8 | 0.7 | 0.6 | 68 | > 10000 | 0.3 | 1.1
11 | CC1(CO)CCN(c2cc(Nc3ccnc(-c4cnn(S(=O)(=O)C5CC5)c4)n3)ncc2C#CC2CCOC2)CC1 (stereo not drawn) [Example 197, (1-(2-((2-(1-(Cyclopropylsulfonyl)-1H-pyrazol-4-yl)pyrimidin-4-yl)amino)-5-((tetrahydrofuran-3-yl)ethynyl)pyridin-4-yl)-4-methylpiperidin-4-yl)methanol] | 0.8 | 8.9 | 0.6 | 0.8 | 0.3 | 0.3 | 5.6 | 1560 | 0.1 | 0.3
12 | O=S(=O)(C1CC1)n1cc(-c2nccc(Nc3cc(NC4CCC(O)CC4)c(C#CC4CCOC4)cn3)n2)cn1 (stereo not drawn) [Example 198, (1s,4s)-4-((2-((2-(1-(Cyclopropylsulfonyl)-1H-pyrazol-4-yl)pyrimidin-4-yl)amino)-5-((tetrahydrofuran-3-yl)ethynyl)pyridin-4-yl)amino)cyclohexan-1-ol] | 2.5 | 50.8 | 2.1 | 3.6 | 0.4 | 0.5 | 25.1 | 5980 | 0.2 | 0.6
13 | CC(C)Nc1cc(Nc2ccnc(-c3cnn(S(=O)(=O)C4CC4)c3)n2)ncc1C#CCN1CCS(=O)(=O)CC1 [Example 201, 4-(3-(6-((2-(1-(Cyclopropylsulfonyl)-1H-pyrazol-4-yl)pyrimidin-4-yl)amino)-4-(isopropylamino)pyridin-3-yl)prop-2-yn-1-yl)thiomorpholine 1,1-dioxide] | 141 |  | 36.7 |  | 1.7 |  | 292 |  | 1.2 | 
14 | CC(C)Nc1cc(Nc2ccnc(-c3cnn(S(=O)(=O)C4CC4)c3)n2)ncc1C#CCN1CCOCC1 [Example 202, N^2-(2-(1-(Cyclopropylsulfonyl)-1H-pyrazol-4-yl)pyrimidin-4-yl)-N^4-isopropyl-5-(3-morpholinoprop-1-yn-1-yl)pyridine-2,4-diamine] | 92.7 |  | 43.4 |  | 2.2 |  | 312 |  | 1.6 | 
15 | CC(C)Nc1cc(Nc2ccnc(-c3cnn(S(=O)(=O)C4CC4)c3)n2)ncc1C#CCN1CCCC1 [Example 203, N^2-(2-(1-(Cyclopropylsulfonyl)-1H-pyrazol-4-yl)pyrimidin-4-yl)-N^4-isopropyl-5-(3-(pyrrolidin-1-yl)prop-1-yn-1-yl)pyridine-2,4-diamine] | 110 |  | 68.1 |  | 2.2 |  | 437 |  | 1.4 | 
